According to US11357778B2, “Antagonist of the fibroblast growth factor receptor 3 (FGFR3) for use in the treatment or the prevention of skeletal disorders linked with abnormal activation of FGFR3” (INSTITUT NATIONAL DE LA SANTE ET DE LE RECHERCHE MEDICALE …, priority 2011, dated 2022):

Legend:
[1] = test system: FGFR3Y373C, FGFR3K650E, FGFR3K650M, FGFR3G380R; assay: Constitutive FGFR3 phosphorylation in HEK-293 cells transiently expressing activated FGFR3; type: cell-based, human; conditions: 10 μM, data not shown
Fgfr3^Y367C/+ femurs = assay: Ex vivo culture of E16.5 embryonic femur explants, bone length; type: cell-based, mouse; conditions: for gain in femur length: Fgfr3^Y367C/+ femurs
Procedure: Six sets of ex vivo experiments were performed. Femur embryos at day E16.5 from WT (n=6) and Fgfr3^Y367C/+ (n=6) mice were used and incubated for 5 days in DMEM medium with antibiotics and 0.2% BSA (Sigma) supplemented with A31 or PD173074 (as control) at a concentration of 2 mM. Right femur was cultured in supplemented medium and compared with the left one cultured in control medium. Rib cage from E16.5 WT and Fgfr3^Y367C/+ mice embryos were isolated and stripped of all soft tissues. Primary chondrocytes were obtained from rib cages. The ribs were incubated in a pronase solution (Roche; 2 mg/ml) followed by a digestion in Collagenase A (Roche; 3 mg/ml) at 37° C. Isolated chondrocytes were plated out at a density of 2.105 cells in 6-well plates containing DMEM supplemented with 10% FCS and antibiotics, and were allowed to reach subconfluency. Cultures were supplemented with A31 or PD173074 (as control) at a concentration of 2 mM. Cells were treated with A31 (2 mM) PD173074 (as control) in serum-free DMEM supplemented with 0.2% BSA and harvested after 24 h. To establish the effect of the inhibitors, the right femur was cultured in supplemented medium and compared with the left one cultured in control medium The bone length was measured at the beginning (before treatment) and at the end of time course. Each experiment was repeated at least three times. The genotype of WT, Fgfr3^Y367C/+ and Fgfr3^−/− mice were determined by PCR of tail DNA as previously described (Pannier et al., Biochim Biophys Acta, 1792: 140-147, 2009). All experimental procedures and protocols were approved by the Animal Care and Use Committee.
Fgfr3^Y367C/+ mice display reduced length of long bones, broad femurs, a narrow trunk, short ribs and a slightly dome-shaped skull, closely resembling achondroplasia (FIGS. 3A and B). The inventors analyzed the effects of A31 on endochondral ossification in Fgfr3^Y367C/+ mice by using an ex vivo culture system for embryonic day 16.5 (E16.5) limb explants. […] After 5 days of culture, the increase in length of the treated mutant femurs was 2.6 times more than for that of WT.
Thus, embryonic femur explants were co-incubated with 150 nM of PD173074 for 5 days.
Embryonic femur explants were co-incubated 100 nM (10^−7M) or 1 μM (10^−6M) of BGJ-398 for 6 days.

[2] = test system: Fgfr3^Y367C/+ growth plate; assay: Histology of cultured femur growth plate (HES staining, type X collagen in situ hybridization); type: cell-based, mouse
Procedure: Limb explants were fixed after culture in 4% paraformaldehyde at 4° C., and placed in a staining solution for 45-60 minutes (0.05% Alizarin Red, 0.015% Alcian Blue, 5% acetic acid in 70% ethanol) or embedded in paraffin. Serial […] were stained with Hematoxylin-Eosin using standard protocols for histological analysis or were subjected to in situ hybridization or immunohistochemical staining. In situ hybridization using [S35]-UTP labeled antisense ribopropes for collagen X was carried out as previously described (Delezoide et al., Hum Mol Genet, 6, 1899-1906, 1997). Sections were counterstained with Hematoxylin. For immunohistochemistry, sections were stained with antibodies specific to FGFR3 (1:250 dilution; Sigma), anti PCNA (1:1000 dilution; Abcam), anti-KI67 (1:300; Abcam), anti-cyclin D1 (1:80 dilution; Santa Cruz) and anti-p57 (1:100 dilution; Santa Cruz) using the Dako Envision kit. Images were captured with an Olympus PD70-IX2-UCB microscope. […] The inventors evaluated the impact of A31 on the growth plate (FIG. 4A). […] Histological examinations using HES staining (FIG. 10A) and type X collagen labeling (FIG. 10B) were also carried out.

Fgfr3^Y367C/+ mice = assay: Dwarfism mouse model, X-rays analysis of skeleton and body growth; type: in vivo; conditions: 10 days
Procedure: The effectiveness of PD173074 and BGJ-398 in attenuating the dwarfism phenotype of Fgfr3^Y367C/+ mice was assessed in viva. The mice were seven days of age at treatment initiation and received daily subcutaneous administration of 4.00 mg/kg PD173074 or of 1.66 mg/kg BGJ-398 for 10 days.
The effectiveness of PD173074 in attenuating the dwarfism phenotype of Fgfr3^Y367C/+ mice was assessed in vivo. The mice were seven days of age at treatment initiation and received daily subcutaneous administrations of 4.00 mg/kg of PD173074 for 10 days.
Seven days old mice received daily subcutaneous administrations of 1.66 mg/kg of BGJ-398 for 10 days.

Structure (SMILES) | constitutive FGFR3 receptor phosphorylation [1] | femur size over concentration (in words) (Fgfr3^Y367C/+ femurs; BGJ-398 100 nM to 1 μM, 6 days) | gain in femur length (Fgfr3^Y367C/+ femurs; BGJ-398 100 nM, 6 days) [%] | chondrocyte morphology (HES staining) ([2]; BGJ-398 10^−6M) | size of the hypertrophic zone of the femur explants ([2]; BGJ-398, Fgfr3^Y367C/+ femur explants) | type X collagen expression (in situ hybridization) ([2]; BGJ-398, Fgfr3^Y367C/+ growth plate) | dwarfism phenotype (X-rays) (Fgfr3^Y367C/+ mice; BGJ-398 1.66 mg/kg daily subcutaneous, from 7 days of age) | gain in femur length (Fgfr3^Y367C/+ femurs; PD173074 150 nM, 5 days) [%] | body size (Fgfr3^Y367C/+ mice; PD173074 4.00 mg/kg daily subcutaneous) | dwarfism phenotype (X-rays, clinical features) (Fgfr3^Y367C/+ mice; PD173074 4.00 mg/kg daily subcutaneous, from 7 days of age)
CCN1CCN(c2ccc(Nc3cc(N(C)C(=O)Nc4c(Cl)c(OC)cc(OC)c4Cl)ncn3)cc2)CC1 [BGJ-398, reference compound] | abolished receptor phosphorylation | concentration-dependent increase | 71.86 | larger and more spherical | increases | enhanced type X collagen expression | Dramatic phenotypic changes | – | – | –
CCN(CC)CCCCNc1ncc2cc(-c3cc(OC)cc(OC)c3)c(NC(=O)NC(C)(C)C)nc2n1 [PD173074] | – | – | – | – | – | – | – | 77 | overall increase in body size | Amelioration in key relevant achondroplasia clinical features
